# Values of other authors in US20060166974A1, “Azabenzoxazoles for the treatment of CNS disorders” (Pfizer Inc., priority 2004, published 2006).
structure (smiles),measurement,setting,value
"O=C1Cc2cc(CCN3CCN(c4nsc5ccccc45)CC3)c(Cl)cc2N1 [Ziprasidone, 5-[2-[4-(1,2-benzisothiazol-3-yl)piperazin-1-yl]ethyl]-6-chloroindolin-2-one]",half-life,in vivo,6 to 7 h
same,protein binding,in vivo,extensive
same,Oral bioavailability,taken with food,approximately 60%
